Measurements from the kinase profiling compilation of Christmann-Franck et al. (2016).

What was measured:
Experiment in all cases: KINOMEscan competition binding
Conditions in all cases: compound 10.0 µM
TGFBR2 (human) = TGFBR2 (human) (UniProt P37173)
TAOK2 (human) = TAOK2 (human) (UniProt Q9UL54)
MAPK3 (human) = MAPK3 (human) (UniProt P27361)
TAOK1 (human) = TAOK1 (human) (UniProt Q7L7X3)
NEK2 (human) = NEK2 (human) (UniProt P51955)
FGR (human) = FGR (human) (UniProt P09769)
TYRO3 (human) = TYRO3 (human) (UniProt Q06418)
ULK1 (human) = ULK1 (human) (UniProt O75385)
Sequence of ULK1 (human) (O75385 whole entry, looked up): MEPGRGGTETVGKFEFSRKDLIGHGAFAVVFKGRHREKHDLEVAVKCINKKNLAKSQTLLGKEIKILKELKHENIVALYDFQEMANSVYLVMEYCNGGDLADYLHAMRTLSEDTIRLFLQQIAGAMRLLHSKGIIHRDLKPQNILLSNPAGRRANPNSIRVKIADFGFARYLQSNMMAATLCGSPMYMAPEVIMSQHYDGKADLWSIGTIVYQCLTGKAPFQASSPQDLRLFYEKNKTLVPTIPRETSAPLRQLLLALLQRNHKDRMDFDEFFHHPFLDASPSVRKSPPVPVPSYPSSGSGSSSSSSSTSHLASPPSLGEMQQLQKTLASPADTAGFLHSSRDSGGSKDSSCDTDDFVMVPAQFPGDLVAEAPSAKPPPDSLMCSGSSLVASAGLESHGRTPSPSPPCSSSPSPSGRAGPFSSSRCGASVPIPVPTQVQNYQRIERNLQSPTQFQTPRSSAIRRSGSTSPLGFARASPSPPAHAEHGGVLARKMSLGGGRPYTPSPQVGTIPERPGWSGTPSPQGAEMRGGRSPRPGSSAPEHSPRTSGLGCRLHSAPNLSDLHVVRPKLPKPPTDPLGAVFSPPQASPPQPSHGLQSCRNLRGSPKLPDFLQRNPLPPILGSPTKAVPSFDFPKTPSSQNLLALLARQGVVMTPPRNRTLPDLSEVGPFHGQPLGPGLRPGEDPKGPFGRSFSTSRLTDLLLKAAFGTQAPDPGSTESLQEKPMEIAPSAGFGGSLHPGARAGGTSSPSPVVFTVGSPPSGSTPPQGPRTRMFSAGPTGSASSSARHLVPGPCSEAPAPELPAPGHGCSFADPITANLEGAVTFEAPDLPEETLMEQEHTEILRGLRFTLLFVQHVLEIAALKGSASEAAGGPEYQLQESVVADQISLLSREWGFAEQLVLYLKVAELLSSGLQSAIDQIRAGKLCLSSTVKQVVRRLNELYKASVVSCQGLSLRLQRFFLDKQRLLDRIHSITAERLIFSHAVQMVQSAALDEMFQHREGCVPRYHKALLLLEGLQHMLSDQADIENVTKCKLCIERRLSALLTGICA

FRK (human) = FRK (human) (UniProt P42685)
FGFR2 (human) = FGFR2 (human) (UniProt P21802)
PAK4 (human) = PAK4 (human) (UniProt O96013)
TGFBR1 (human) = TGFBR1 (human) (UniProt P36897)
MYLK (human) = MYLK (human) (UniProt Q15746)
ROCK2 (human) = ROCK2 (human) (UniProt O75116)
MERTK (human) = MERTK (human) (UniProt Q12866)
IGF1R (human) = IGF1R (human) (UniProt P08069)
Sequence of IGF1R (human) (P08069 whole entry, looked up): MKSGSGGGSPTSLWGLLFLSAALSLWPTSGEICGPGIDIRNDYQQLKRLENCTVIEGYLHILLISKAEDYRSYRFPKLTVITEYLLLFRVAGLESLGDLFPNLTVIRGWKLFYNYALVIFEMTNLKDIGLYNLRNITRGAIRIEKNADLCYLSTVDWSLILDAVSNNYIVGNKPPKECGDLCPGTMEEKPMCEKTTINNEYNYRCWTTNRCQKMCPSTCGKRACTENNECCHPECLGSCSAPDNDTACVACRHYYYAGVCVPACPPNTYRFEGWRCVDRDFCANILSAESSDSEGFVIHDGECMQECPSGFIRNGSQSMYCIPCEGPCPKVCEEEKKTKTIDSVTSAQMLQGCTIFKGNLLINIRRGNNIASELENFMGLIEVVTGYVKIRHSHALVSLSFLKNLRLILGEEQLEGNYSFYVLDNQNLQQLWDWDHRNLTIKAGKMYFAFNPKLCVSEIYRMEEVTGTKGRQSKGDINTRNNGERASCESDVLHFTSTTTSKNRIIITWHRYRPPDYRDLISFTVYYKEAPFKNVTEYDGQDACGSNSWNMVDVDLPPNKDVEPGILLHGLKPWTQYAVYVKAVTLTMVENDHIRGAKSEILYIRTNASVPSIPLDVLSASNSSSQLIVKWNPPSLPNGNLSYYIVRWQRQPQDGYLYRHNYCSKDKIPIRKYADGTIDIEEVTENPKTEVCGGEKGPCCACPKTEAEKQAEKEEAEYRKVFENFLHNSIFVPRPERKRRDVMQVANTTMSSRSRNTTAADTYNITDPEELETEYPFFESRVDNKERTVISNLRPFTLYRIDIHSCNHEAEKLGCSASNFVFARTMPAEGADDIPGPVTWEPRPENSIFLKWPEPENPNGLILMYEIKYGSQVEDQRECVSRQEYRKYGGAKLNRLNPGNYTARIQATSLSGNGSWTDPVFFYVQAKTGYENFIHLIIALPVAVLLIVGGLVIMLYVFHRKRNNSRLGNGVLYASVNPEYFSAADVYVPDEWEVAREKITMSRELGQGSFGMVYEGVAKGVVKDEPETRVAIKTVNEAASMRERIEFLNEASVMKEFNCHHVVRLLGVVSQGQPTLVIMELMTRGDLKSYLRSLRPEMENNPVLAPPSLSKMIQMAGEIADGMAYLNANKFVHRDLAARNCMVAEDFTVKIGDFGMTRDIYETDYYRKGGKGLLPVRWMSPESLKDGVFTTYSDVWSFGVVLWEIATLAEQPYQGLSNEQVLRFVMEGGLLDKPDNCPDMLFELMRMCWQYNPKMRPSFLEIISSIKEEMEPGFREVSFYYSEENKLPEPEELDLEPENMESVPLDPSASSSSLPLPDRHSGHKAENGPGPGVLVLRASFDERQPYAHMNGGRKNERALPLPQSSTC

MAST1 (human) = MAST1 (human) (UniProt Q9Y2H9)
GRK7 (human) = GRK7 (human) (UniProt Q8WTQ7)
BLK (human) = BLK (human) (UniProt P51451)
ERBB2 (human) = ERBB2 (human) (UniProt P04626)
CAMK4 (human) = CAMK4 (human) (UniProt Q16566)
STK10 (human) = STK10 (human) (UniProt O94804)
TXK (human) = TXK (human) (UniProt P42681)
PTK2B (human) = PTK2B (human) (UniProt Q14289)
MST1R (human) = MST1R (human) (UniProt Q04912)
MUSK (human) = MUSK (human) (UniProt O15146)
RPS6KA2 KD2 (human) = RPS6KA2 KD2 (human) (UniProt Q15349)
MYO3B (human) = MYO3B (human) (UniProt Q8WXR4)
[1] = system: KIT (human), P10721 [D816H]
MAP3K2 (human) = MAP3K2 (human) (UniProt Q9Y2U5)
Sequence of MAP3K2 (human) (Q9Y2U5 whole entry, looked up): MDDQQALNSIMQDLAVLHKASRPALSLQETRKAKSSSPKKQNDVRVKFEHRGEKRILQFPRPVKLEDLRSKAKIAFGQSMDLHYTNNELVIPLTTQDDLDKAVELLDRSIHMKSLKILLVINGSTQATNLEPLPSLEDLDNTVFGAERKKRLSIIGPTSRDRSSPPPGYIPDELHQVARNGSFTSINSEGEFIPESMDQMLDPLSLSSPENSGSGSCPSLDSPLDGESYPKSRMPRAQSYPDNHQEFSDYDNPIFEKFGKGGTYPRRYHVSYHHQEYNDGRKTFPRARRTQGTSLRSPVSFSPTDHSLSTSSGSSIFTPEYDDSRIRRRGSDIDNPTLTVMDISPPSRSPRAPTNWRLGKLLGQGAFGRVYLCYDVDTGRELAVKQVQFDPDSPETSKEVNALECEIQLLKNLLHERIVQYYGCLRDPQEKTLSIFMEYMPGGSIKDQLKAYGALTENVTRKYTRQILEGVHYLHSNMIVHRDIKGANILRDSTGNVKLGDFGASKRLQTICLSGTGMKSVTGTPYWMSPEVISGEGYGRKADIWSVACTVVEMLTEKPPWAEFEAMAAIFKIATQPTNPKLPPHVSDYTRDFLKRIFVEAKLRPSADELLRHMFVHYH

ICK (human) = ICK (human) (UniProt Q9UPZ9)
[2] = system: EGFR (human), P00533 [G719C]
PI4KB (human) = PI4KB (human) (UniProt Q9UBF8)
[3] = system: PIK3CA (human), P42336 [H1047L]
MYLK4 (human) = MYLK4 (human) (UniProt Q86YV6)
PIM2 (human) = PIM2 (human) (UniProt Q9P1W9)
STK38 (human) = STK38 (human) (UniProt Q15208)
Sequence of STK38 (human) (Q15208 whole entry, looked up): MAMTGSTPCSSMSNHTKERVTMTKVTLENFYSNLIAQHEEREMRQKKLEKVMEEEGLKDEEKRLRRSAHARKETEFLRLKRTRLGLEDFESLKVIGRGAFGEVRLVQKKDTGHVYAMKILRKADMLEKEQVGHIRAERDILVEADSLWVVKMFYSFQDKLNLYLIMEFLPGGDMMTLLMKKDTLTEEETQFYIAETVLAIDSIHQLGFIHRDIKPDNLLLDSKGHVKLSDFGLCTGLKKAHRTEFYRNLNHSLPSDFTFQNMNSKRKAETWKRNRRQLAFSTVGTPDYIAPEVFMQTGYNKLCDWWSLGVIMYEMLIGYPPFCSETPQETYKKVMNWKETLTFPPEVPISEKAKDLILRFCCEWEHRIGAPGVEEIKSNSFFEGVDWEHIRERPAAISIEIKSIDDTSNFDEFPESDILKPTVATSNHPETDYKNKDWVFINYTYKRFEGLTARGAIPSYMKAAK

TRPM6 (human) = TRPM6 (human) (UniProt Q9BX84)
SRMS (human) = SRMS (human) (UniProt Q9H3Y6)
Sequence of SRMS (human) (Q9H3Y6 whole entry, looked up): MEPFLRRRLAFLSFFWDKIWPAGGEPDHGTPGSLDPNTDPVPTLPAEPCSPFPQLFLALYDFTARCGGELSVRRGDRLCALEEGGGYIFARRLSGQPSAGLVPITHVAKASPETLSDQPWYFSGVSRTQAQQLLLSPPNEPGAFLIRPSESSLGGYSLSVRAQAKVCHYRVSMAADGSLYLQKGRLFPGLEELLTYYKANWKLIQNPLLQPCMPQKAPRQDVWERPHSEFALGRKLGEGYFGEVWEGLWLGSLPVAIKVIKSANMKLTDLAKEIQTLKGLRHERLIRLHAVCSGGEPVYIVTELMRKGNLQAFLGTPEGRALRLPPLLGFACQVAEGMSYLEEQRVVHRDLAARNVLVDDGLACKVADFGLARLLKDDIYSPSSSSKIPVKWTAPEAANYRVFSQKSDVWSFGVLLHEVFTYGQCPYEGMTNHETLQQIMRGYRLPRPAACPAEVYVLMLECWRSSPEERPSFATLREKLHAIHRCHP

MAP4K4 (human) = MAP4K4 (human) (UniProt O95819)

Sequence of MAPK3 (human) (P27361 whole entry, looked up): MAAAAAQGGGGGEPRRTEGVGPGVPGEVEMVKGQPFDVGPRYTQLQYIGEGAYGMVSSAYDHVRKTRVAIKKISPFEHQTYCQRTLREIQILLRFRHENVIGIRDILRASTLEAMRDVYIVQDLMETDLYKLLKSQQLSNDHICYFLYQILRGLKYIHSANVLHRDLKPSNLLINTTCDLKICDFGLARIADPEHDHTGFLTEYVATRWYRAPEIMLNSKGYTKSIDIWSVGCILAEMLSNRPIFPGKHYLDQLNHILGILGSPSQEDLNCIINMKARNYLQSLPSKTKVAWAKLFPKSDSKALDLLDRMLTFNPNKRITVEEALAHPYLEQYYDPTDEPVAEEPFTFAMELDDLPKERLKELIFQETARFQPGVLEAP
Sequence of NEK2 (human) (P51955 whole entry, looked up): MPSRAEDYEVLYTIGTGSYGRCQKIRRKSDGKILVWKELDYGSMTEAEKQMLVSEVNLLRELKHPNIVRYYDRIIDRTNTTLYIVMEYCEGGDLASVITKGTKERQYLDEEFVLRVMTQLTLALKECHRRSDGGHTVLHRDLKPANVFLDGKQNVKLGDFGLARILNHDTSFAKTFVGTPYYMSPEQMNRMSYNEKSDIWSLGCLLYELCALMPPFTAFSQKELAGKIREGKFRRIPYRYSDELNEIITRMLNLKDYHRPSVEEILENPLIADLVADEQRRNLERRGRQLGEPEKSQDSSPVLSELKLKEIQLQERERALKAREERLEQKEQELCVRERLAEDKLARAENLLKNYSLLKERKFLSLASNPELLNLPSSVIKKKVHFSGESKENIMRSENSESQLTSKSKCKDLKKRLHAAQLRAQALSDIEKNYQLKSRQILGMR

SMILES	kinase still bound, per cent of control (TAOK2 (human)) [%]	kinase still bound, per cent of control (MAPK3 (human)) [%]	kinase still bound, per cent of control (TAOK1 (human)) [%]	kinase still bound, per cent of control (NEK2 (human)) [%]	kinase still bound, per cent of control (FGR (human)) [%]	kinase still bound, per cent of control (TYRO3 (human)) [%]	kinase still bound, per cent of control (ULK1 (human)) [%]	kinase still bound, per cent of control (FGFR2 (human)) [%]	kinase still bound, per cent of control (MYLK (human)) [%]	kinase still bound, per cent of control (ROCK2 (human)) [%]	kinase still bound, per cent of control (MERTK (human)) [%]	kinase still bound, per cent of control (IGF1R (human)) [%]	kinase still bound, per cent of control (MAST1 (human)) [%]	kinase still bound, per cent of control (GRK7 (human)) [%]	kinase still bound, per cent of control (ERBB2 (human)) [%]	kinase still bound, per cent of control (STK10 (human)) [%]	kinase still bound, per cent of control (RPS6KA2 KD2 (human)) [%]	kinase still bound, per cent of control (MYO3B (human)) [%]	kinase still bound, per cent of control [1] [%]	kinase still bound, per cent of control (MAP3K2 (human)) [%]	other results
COc1cc2ncnc(Nc3cccc(Cl)c3)c2cc1OC	76	88	38	92	32	23	75	99	18	39	71	100	79	75	0.3	1.5	90	100	59	30	kinase still bound, per cent of control (TGFBR2 (human)): 91%; kinase still bound, per cent of control (FRK (human)): 29%; kinase still bound, per cent of control (PAK4 (human)): 84%; kinase still bound, per cent of control (TGFBR1 (human)): 88%; kinase still bound, per cent of control (BLK (human)): 7.1%; kinase still bound, per cent of control (CAMK4 (human)): 100%; kinase still bound, per cent of control (TXK (human)): 63%; kinase still bound, per cent of control (PTK2B (human)): 86%; kinase still bound, per cent of control (MST1R (human)): 100%; kinase still bound, per cent of control (MUSK (human)): 100%; kinase still bound, per cent of control (ICK (human)): 100%; kinase still bound, per cent of control [2]: 0.1%; kinase still bound, per cent of control (PI4KB (human)): 44%; kinase still bound, per cent of control [3]: 56%; kinase still bound, per cent of control (MYLK4 (human)): 78%; kinase still bound, per cent of control (PIM2 (human)): 74%; kinase still bound, per cent of control (STK38 (human)): 61%; kinase still bound, per cent of control (TRPM6 (human)): 77%; kinase still bound, per cent of control (SRMS (human)): 60%
CC(=O)c1c(C)c2cnc(Nc3ccc(N4CCNCC4)cn3)nc2n(C2CCCC2)c1=O	30	64	11	31	71	93	3.1	95	20	36	39	81	5	13	79	23	26	100	56	49	kinase still bound, per cent of control (MAP4K4 (human)): 23%; kinase still bound, per cent of control (PTK2B (human)): 31%; kinase still bound, per cent of control (ICK (human)): 38%; kinase still bound, per cent of control [3]: 25%; kinase still bound, per cent of control (MYLK4 (human)): 35%; kinase still bound, per cent of control (PIM2 (human)): 52%; kinase still bound, per cent of control (STK38 (human)): 57%; kinase still bound, per cent of control (TRPM6 (human)): 91%; kinase still bound, per cent of control (SRMS (human)): 49%
CCc1nc(-c2cccc(C)c2)c(-c2ccnc(NC(=O)c3ccccc3)c2)s1	86	98	72	95	52	83	69	71	84	100	100	100	100	100	43	59	86	48	57	100	kinase still bound, per cent of control (TGFBR2 (human)): 82%; kinase still bound, per cent of control (FRK (human)): 36%; kinase still bound, per cent of control (PAK4 (human)): 86%; kinase still bound, per cent of control (BLK (human)): 17%; kinase still bound, per cent of control (CAMK4 (human)): 99%; kinase still bound, per cent of control (TXK (human)): 75%; kinase still bound, per cent of control (MST1R (human)): 88%; kinase still bound, per cent of control (MUSK (human)): 100%; kinase still bound, per cent of control (ICK (human)): 100%; kinase still bound, per cent of control (PI4KB (human)): 100%; kinase still bound, per cent of control [3]: 100%; kinase still bound, per cent of control (MYLK4 (human)): 100%; kinase still bound, per cent of control (PIM2 (human)): 82%; kinase still bound, per cent of control (STK38 (human)): 100%; kinase still bound, per cent of control (TRPM6 (human)): 100%; kinase still bound, per cent of control (SRMS (human)): 83%
